# Source: patent publication US20250270213A1, “PI3Ka INHIBITORS” (Synnovation Therapeutics, Inc., priority 2022, published 2025)
# System: T47D (PIK3CA H1047R) cells
# Experiment: pS473 AKT assay with 2.5% FBS, T47D cells
# Assay type: cell-based
# Details: Homo sapiens, pSer473 AKT, DMEM with 2.5% FBS, 2 h treatment, read-out: T47D_IC50
# Method in brief: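 In-cell chemiluminescent ELISA of AKT Ser473 phosphorylation, using anti-pSer473 primary and HRP secondary antibodies on fixed cells. T47D (PIK3CA H1047R) cells had 2 h of compound treatment in DMEM containing 2.5% FBS; IC50 derived from dose-response.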
row,Structure (SMILES),IC50 [nM]
1,"CCn1c(=O)c2cc(C)cc(C(C)Nc3ccc(Cl)nc3-c3cnn(C4CCN(C)CC4)c3)c2c2cnn([C@H]3CCOC3)c21 (stereo partly drawn) [Example 217, 9-(1-((6-chloro-2-(1-(1-methylpiperidin-4-yl)-1H-pyrazol-4-yl)pyridin-3-yl)amino)ethyl)-4-ethyl-7-methyl-3-((S)-tetrahydrofuran-3-yl)-3,4-dihydro-5H-pyrazolo[3,4-c]isoquinolin-5-one]",< 1000
2,"CCn1c(=O)c2cc(C)cc(C(C)Nc3ccc(Cl)nc3-c3ccnc(C)c3)c2c2cnn([C@H]3CCOC3)c21 (stereo partly drawn) [Example 218, 9-(1-((6-chloro-2′-methyl-[2,4′-bipyridin]-3-yl)amino)ethyl)-4-ethyl-7-methyl-3-((S)-tetrahydrofuran-3-yl)-3,4-dihydro-5H-pyrazolo[3,4-c]isoquinolin-5-one]",< 1000
3,"CCn1c(=O)c2cc(C)cc(C(C)Nc3ccc(Cl)nc3-c3ccc(=O)n(C)c3)c2c2cnn([C@H]3CCOC3)c21 (stereo partly drawn) [Example 219, 9-(1-((6-chloro-1′-methyl-6′-oxo-1′,6′-dihydro-[2,3′-bipyridin]-3-yl)amino)ethyl)-4-ethyl-7-methyl-3-((S)-tetrahydrofuran-3-yl)-3,4-dihydro-5H-pyrazolo[3,4-c]isoquinolin-5-one]",< 1000
4,"CCn1c(=O)c2cc(C)cc(C(C)Nc3ccc(Cl)nc3-c3ccc(C(=O)NC)nc3)c2c2cnn([C@H]3CCOC3)c21 (stereo partly drawn) [Example 220, 6-chloro-3-((1-(4-ethyl-7-methyl-5-oxo-3-((S)-tetrahydrofuran-3-yl)-4,5-dihydro-3H-pyrazolo[3,4-c]isoquinolin-9-yl)ethyl)amino)-N-methyl-[2,3′-bipyridine]-6′-carboxamide]",< 1000
5,"CCn1ncc2c3c(C(C)Nc4ccc(Cl)nc4-c4ncn(C)n4)cc(C)cc3c(=O)n(C3CC3)c21 (centres unmarked) [Example 221, 9-(1-((6-Chloro-2-(1-methyl-1H-1,2,4-triazol-3-yl)pyridin-3-yl)amino)ethyl)-4-cyclopropyl-3-ethyl-7-methyl-3,4-dihydro-5H-pyrazolo[3,4-c]isoquinolin-5-one]",< 1000
6,"CCn1ncc2c3c(C(C)Nc4ccc(Cl)nc4-c4ccc(=O)n(C)c4)cc(C)cc3c(=O)n(C3CC3)c21 (centres unmarked) [Example 222, 9-[1-[[6-chloro-2-(1-methyl-6-oxo-3-pyridyl)-3-pyridyl]amino]ethyl]-4-cyclopropyl-3-ethyl-7-methyl-pyrazolo[3,4-c]isoquinolin-5-one]",< 1000
7,"CCn1ncc2c3c(C(C)Nc4ccc(Cl)nc4-c4ncn(C)n4)cc(C)cc3c(=O)n(C3CCOC3)c21 (centres unmarked) [Example 223, 9-[1-[[6-Chloro-2-(1-methyl-1,2,4-triazol-3-yl)-3-pyridyl]amino]ethyl]-3-ethyl-7-methyl-4-tetrahydrofuran-3-yl-pyrazolo[3,4-c]isoquinolin-5-one]",< 1000
8,"CCn1ncc2c3c(C(C)Nc4ccc(Cl)nc4-c4ncn(C)n4)cc(C)cc3c(=O)n(CCO)c21 (centres unmarked) [Example 224, 9-[1-[[6-Chloro-2-(1-methyl-1,2,4-triazol-3-yl)-3-pyridyl]amino]ethyl]-3-ethyl-4-(2-hydroxyethyl)-7-methyl-pyrazolo[3,4-c]isoquinolin-5-one]",< 1000
9,"CCn1ncc2c3c(CNc4ccc(Cl)nc4-c4ccc(C(=O)NC)c(F)c4)cc(C)cc3c(=O)n(C)c21 [Example 225, 4-(6-Chloro-3-(((3-ethyl-4,7-dimethyl-5-oxo-4,5-dihydro-3H-pyrazolo[3,4-c]isoquinolin-9-yl)methyl)amino)pyridin-2-yl)-2-fluoro-N-methylbenzamide]",< 1000
10,"CCn1ncc2c3c(C(C)Oc4ccc(Cl)nc4-c4c[nH]nc4C)cc(C)cc3c(=O)n(C)c21 (centres unmarked) [Example 226, 9-(1-((6-Chloro-2-(3-methyl-1H-pyrazol-4-yl)pyridin-3-yl)oxy)ethyl)-3-ethyl-4,7-dimethyl-3,4-dihydro-5H-pyrazolo[3,4-c]isoquinolin-5-one]",< 1000
11,"[2H]C([2H])([2H])n1c(=O)c2cc(C)cc(C(C)Nc3ccc(Cl)nc3-c3noc(=O)[nH]3)c2c2cnn(CC)c21 (centres unmarked) [Example 227, 3-(6-Chloro-3-((1-(3-ethyl-7-methyl-4-(methyl-d3)-5-oxo-4,5-dihydro-3H-pyrazolo[3,4-c]isoquinolin-9-yl)ethyl)amino)pyridin-2-yl)-1,2,4-oxadiazol-5(4H)-one]",< 1000
12,"CCn1ncc2c3c(C(C)Nc4ccc(Cl)nc4-c4ncn(C)n4)cc(C)cc3c(=O)n(C)c21 (centres unmarked) [Example 228, 9-(1-((6-chloro-2-(1-methyl-1H-1,2,4-triazol-3-yl)pyridin-3-yl)amino)ethyl)-3-ethyl-4,7-dimethyl-3,4-dihydro-5H-pyrazolo[3,4-c]isoquinolin-5-one]",< 1000
13,"CCn1ncc2c3c(C(C)Nc4ccc(Cl)nc4-c4nncn4C)cc(C)cc3c(=O)n(C)c21 (centres unmarked) [Example 229, 9-(1-((6-chloro-2-(4-methyl-1H-1,2,4-triazol-3-yl)pyridin-3-yl)amino)ethyl)-3-ethyl-4,7-dimethyl-3,4-dihydro-5H-pyrazolo[3,4-c]isoquinolin-5-one]",< 1000
14,"CCn1ncc2c3c(C(C)Nc4ccc(Cl)nc4-c4nnn[nH]4)cc(C)cc3c(=O)n(C)c21 (centres unmarked) [Example 230, 9-(1-((6-chloro-2-(1H-tetrazol-5-yl)pyridin-3-yl)amino)ethyl)-3-ethyl-4,7-dimethyl-3,4-dihydro-5H-pyrazolo[3,4-c]isoquinolin-5-one]",< 1000
15,"CCn1ncc2c3c(C(C)Nc4ccc(Cl)nc4-c4cnnn4C)cc(C)cc3c(=O)n(C)c21 (centres unmarked) [Example 231, 9-(1-((6-chloro-2-(1-methyl-1H-1,2,3-triazol-5-yl)pyridin-3-yl)amino)ethyl)-3-ethyl-4,7-dimethyl-3,4-dihydro-5H-pyrazolo[3,4-c]isoquinolin-5-one]",< 1000
16,"CCn1ncc2c3c(C(C)Nc4ccc(Cl)nc4-c4cnn(C5CCN(C(=O)N(C)C)CC5)c4)cc(C)cc3c(=O)n(C)c21 (centres unmarked) [Example 233, 4-(4-(6-chloro-3-((1-(3-ethyl-4,7-dimethyl-5-oxo-4,5-dihydro-3H-pyrazolo[3,4-c]isoquinolin-9-yl)ethyl)amino)pyridin-2-yl)-1H-pyrazol-1-yl)-N,N-dimethylpiperidine-1-carboxamide]",< 1000
17,"CCn1ncc2c3c(C(C)Nc4ccc(Cl)nc4-c4cnn(C5CCN(CCC#N)CC5)c4)cc(C)cc3c(=O)n(C)c21 (centres unmarked) [Example 234, 3-(4-(4-(6-chloro-3-((1-(3-ethyl-4,7-dimethyl-5-oxo-4,5-dihydro-3H-pyrazolo[3,4-c]isoquinolin-9-yl)ethyl)amino)pyridin-2-yl)-1H-pyrazol-1-yl)piperidin-1-yl)propanenitrile]",< 1000
18,"CCn1ncc2c3c(C(C)Nc4ccc(C)nc4-c4c[nH]nc4C)cc(C)cc3c(=O)n(C)c21 (centres unmarked) [Example 235, 3-ethyl-4,7-dimethyl-9-(1-((6-methyl-2-(3-methyl-1H-pyrazol-4-yl)pyridin-3-yl)amino)ethyl)-3,4-dihydro-5H-pyrazolo[3,4-c]isoquinolin-5-one]",< 1000
19,"CCn1ncc2c3c(C(C)Nc4ccc(Cl)nc4-c4ncn(C)n4)cc(C)cc3c(=O)n(CC(F)F)c21 (centres unmarked) [Example 236, 9-(1-((6-chloro-2-(1-methyl-1H-1,2,4-triazol-3-yl)pyridin-3-yl)amino)ethyl)-4-(2,2-difluoroethyl)-3-ethyl-7-methyl-3,4-dihydro-5H-pyrazolo[3,4-c]isoquinolin-5-one]",< 1000
20,"CCn1ncc2c3c(C(C)Nc4ccc(Cl)nc4-c4ccnc(C)c4)cc(C)cc3c(=O)n(CC(F)F)c21 (centres unmarked) [Example 237, 9-(1-((6-chloro-2′-methyl-[2,4′-bipyridin]-3-yl)amino)ethyl)-4-(2,2-difluoroethyl)-3-ethyl-7-methyl-3,4-dihydro-5H-pyrazolo[3,4-c]isoquinolin-5-one]",< 1000
21,"CCn1ncc2c3c(C(C)Nc4ccc(Cl)nc4-c4cncnc4)cc(C)cc3c(=O)n(CC(F)F)c21 (centres unmarked) [Example 238, 9-(1-((6-chloro-2-(pyrimidin-5-yl)pyridin-3-yl)amino)ethyl)-4-(2,2-difluoroethyl)-3-ethyl-7-methyl-3,4-dihydro-5H-pyrazolo[3,4-c]isoquinolin-5-one]",< 1000
22,"CCn1ncc2c3c(C(C)Nc4ccc(Cl)nc4-c4ccc(=O)n(C)c4)cc(C)cc3c(=O)n(CC(F)F)c21 (centres unmarked) [Example 239, 9-(1-((6-chloro-1′-methyl-6′-oxo-1′,6′-dihydro-[2,3′-bipyridin]-3-yl)amino)ethyl)-4-(2,2-difluoroethyl)-3-ethyl-7-methyl-3,4-dihydro-5H-pyrazolo[3,4-c]isoquinolin-5-one]",< 1000
23,"CCn1ncc2c3c(C(C)Nc4ccc(Cl)nc4-c4ccc(C(=O)NC)nc4)cc(C)cc3c(=O)n(CC(F)F)c21 (centres unmarked) [Example 240, 6-chloro-3-((1-(4-(2,2-difluoroethyl)-3-ethyl-7-methyl-5-oxo-4,5-dihydro-3H-pyrazolo[3,4-c]isoquinolin-9-yl)ethyl)amino)-N-methyl-[2,3′-bipyridine]-6′-carboxamide]",< 1000
24,"CCn1ncc2c3c(C(C)Nc4ccc(Cl)nc4C4CCN(C(C)=O)CC4)cc(C)cc3c(=O)n(C)c21 (centres unmarked) [Example 241, 9-[1-[[2-(1-Acetyl-4-piperidyl)-6-chloro-3-pyridyl]amino]ethyl]-3-ethyl-4,7-dimethyl-pyrazolo[3,4-c]isoquinolin-5-one]",< 1000
25,"Cc1cc(C(C)Nc2ccc(Cl)nc2-c2ncn(C)n2)c2c(c1)c(=O)n(C)c1c2cnn1CCO (centres unmarked) [Example 242, 9-(1-((6-Chloro-2-(1-methyl-1H-1,2,4-triazol-3-yl)pyridin-3-yl)amino)ethyl)-3-(2-hydroxyethyl)-4,7-dimethyl-3,4-dihydro-5H-pyrazolo[3,4-c]isoquinolin-5-one]",< 1000

# Same assay, conditions: pSer473 AKT, DMEM with 2.5% FBS, 2 h treatment, read-out: T47D_IC50
row,Structure (SMILES),IC50 [nM]
1,"CCn1ncc2c3c(C(C)Nc4ccc(Cl)nc4-c4ccc(C(=O)O)cc4)cc(C)cc3c(=O)n(C)c21 (centres unmarked) [Example 232, 4-(6-chloro-3-((1-(3-ethyl-4,7-dimethyl-5-oxo-4,5-dihydro-3H-pyrazolo[3,4-c]isoquinolin-9-yl)ethyl)amino)pyridin-2-yl)benzoic acid]",< 1000
